Assay results as given in US20110105397A1, “METHOD FOR TREATING HEART FAILURE WITH STRESSCOPIN-LIKE PEPTIDES” (priority 2009, published 2011).
Where a SMILES comes first, the peptide text is derived from it. Where no end group is shown, it is not given here. The star is where a group is joined. Succinimide(1-Et,3-yl) = CCN1C(=O)CC(*)C1=O

Target: T1, human CRHR2 (Homo sapiens, UniProt Q13324)
T1 construct: expressed in transfected cells
T1 sequence (Q13324 1-411): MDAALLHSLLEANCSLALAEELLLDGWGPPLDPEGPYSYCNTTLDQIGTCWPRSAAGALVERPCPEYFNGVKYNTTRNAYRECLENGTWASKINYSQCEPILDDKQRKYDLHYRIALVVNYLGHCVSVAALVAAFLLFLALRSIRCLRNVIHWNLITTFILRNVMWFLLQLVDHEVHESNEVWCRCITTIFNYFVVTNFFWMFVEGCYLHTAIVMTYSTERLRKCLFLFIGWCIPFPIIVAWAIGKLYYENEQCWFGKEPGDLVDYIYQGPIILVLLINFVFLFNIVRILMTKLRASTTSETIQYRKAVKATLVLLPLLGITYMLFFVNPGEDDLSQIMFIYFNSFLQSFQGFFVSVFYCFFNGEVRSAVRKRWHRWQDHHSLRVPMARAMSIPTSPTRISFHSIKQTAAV
Assay: cAMP assay, h-CRHR2 transfected SK-N-MC cells
Assay type: cell-based
Details: Table 13; for EC50: cysteine mutation, N-ethylmaleimide capping, pegylation, read-out: pA50 (converted); for Log DR [M]: h-SCP control pA50 minus test compound pA50 within the same assay batch
Experimental: The concentration required for 50% maximum effect (A50) was 0.4 nM.
Human CRHR1 (accession number X72304) or CRHR2 (accession number U34587) were cloned into pcDNA3.1/Zeo expression vector and stably transfected into SK—N-MC cells by electroporation. Cells were maintained in MEM w/Earl's Salt with 10% FBS, 50 I.U. penicillin, 50 μg/ml streptomycin, 2 mM L-glutamine, 1 mM sodium pyruvate and 0.1 mM non-essential amino acids, 600 μg/ml G418. Cells were grown at 37° C. in 5% CO2
Cells were plated in 96-well tissue culture dishes (Biocoat from BD Biosciences) overnight at 50,000 cell/well. Cells were washed with PBS then resuspended in DMEM F-12 without phenol red, containing 10 μM isobutylmethylxanthine (IBMX). Cells were incubated with the peptides at concentrations ranging from 1 pM to 10 μM for 60 min at 37° Celsius. […] Forskolin (10 μM), a direct stimulant of adenylate cyclase, was used as positive control. The assays were stopped by the addition of 0.5 M HCl and mixing by orbital rotation for 2 h at 4° Celsius.
To assess the activity of the inventive polypeptide at the CRHR2, an intracellular cAMP measurement test using a Flash plate radioactive assay (Catalog No. Cus56088; Perkin Elmer, Mass., U.S.A.) was employed.
Transfected SK—N-MC cells were plated in 96-well Biocoat tissue culture dishes (BD Biosciences, San Jose, Calif., U.S.A) overnight at 50,000 cell/well. Cells were first washed with PBS and then suspended with DMEM/F-12 without phenol red, containing […]. Suspended cells were transferred into a 96-well flash plate coated with scintillant fluid. Cells were incubated with peptides ranging from 1 pM to 1 μM, for 60 min, at 37° Celsius. Forskolin at 10 μM was used as positive control. After ligand stimulation, cells were lysed by the addition of 0.5M HCl and mixed by orbital rotation for 2 h at 4° Celsius in order to release intracellular cAMP into the media.
Media containing released intracellular cAMP was transferred to a 96-well flash plate coated with scintillant fluid containing an anti-cAMP antibody. In this assay, intracellular cAMP competes with ^125I-labeled cAMP binding to the antibody. To generate a standard curve, cAMP ranging from 2.5 to 250 pmoles/ml was included in the experiment. [^125I]-cAMP was measured on a TopCount scintillation counter (Perkin Elmer, Mass., U.S.A).
Individual agonist concentration-response curve data were fitted to the Hill equation, see formula below, using GraphPad Prism (Graphpad Software, La Jolla, Calif., U.S.A.), to provide estimates of agonist concentration needed to generate one-half maximal response (A50), and the maximal asymptote (α) and Hill slope (nH) parameters. In this equation, [A] is the agonist concentration and E is the measured effect:
For display purposes the mean fitted parameter estimates were used to generate a single E/[A] curve shown superimposed on the mean experimental data. Potency estimates for agonists, pA50, are expressed as the negative logarithm of the midpoint of each curve and listed with their standard error of measurement (SEM). Logarithm base 10 of the agonist dose ratio (Log DR) values were calculated by subtraction of the test compound pA50 value from the corresponding h-SCP (SEQ ID NO:1) control pA50 value within the same assay batch. The SEM values of the Log DR values are given by the square root of the sum of the squared SEM values of the h-SCP (SEQ ID NO:1) control and test compound pA50 values.
Human and rat peptides (see Table 10) were used on the stimulation of h-CRHR1 or h-CRHR2 transfected SK—N-MC cells in the cAMP flash plate assay. Peptides were incubated for 1 hr at 37° Celsius. Curves were calculated using non-linear regression sigmoidal concentration-response analysis calculation in GraphPad Prism. The so obtained pA50 values are shown in Table 11 in addition to literature values. […]

| Molecule | EC50 [nM] | Log DR [M] |
| --- | --- | --- |
| TCFTLSLDVPTNIMNLLFNIAKAKNLRAQAAANAHLMAQI-NH2 [SEQ ID NO: 3, TCFTLSLDVPTNIMNLLFNIAKAKNLRAQAAANAHLMAQI-NH2] | 1.07 | 0.72 |
| TKFTLSLDVPTNIMNLLFNIAKAKNLRACAAANAHLMAQI-NH2 [SEQ ID NO: 30, TKFTLSLDVPTNIMNLLFNIAKAKNLRACAAANAHLMAQI-NH2] | 3.98 | 1.28 |
| TKFTLSLDVPTNIMNLLFNIACAKNLRAQAAANAHLMAQI-NH2 [SEQ ID NO: 23, TKFTLSLDVPTNIMNLLFNIACAKNLRAQAAANAHLMAQI-NH2] | 2.82 | 1.13 |
| H-TKFTLSLDVPTNIMNLLFNIAKAKNLRCQAAANAHLMAQI-NH2 [SEQ ID NO: 29, TKFTLSLDVPTNIMNLLFNIAKAKNLRCQAAANAHLMAQI-NH2] | 0.339 | 0.00 |
| TKFTLSLDCPTNIMNLLFNIAKAKNLRAQAAANAHLMAQI-NH2 [SEQ ID NO: 10, TKFTLSLDCPTNIMNLLFNIAKAKNLRAQAAANAHLMAQI-NH2] | 5.25 | 1.30 |
| TKFTLSLDVPTNIMNLCFNIAKAKNLRAQAAANAHLMAQI-NH2 [SEQ ID NO: 18, TKFTLSLDVPTNIMNLCFNIAKAKNLRAQAAANAHLMAQI-NH2] | 3.89 | 1.11 |

Next, values leading:

| EC50 [nM] | Log DR [M] | Molecule |
| --- | --- | --- |
| 0.331 | −0.01 | CC[C@H](C)[C@H](NC(=O)[C@H](CCC(N)=O)NC(=O)[C@H](C)NC(=O)[C@H](CCSC)NC(=O)[C@H](CC(C)C)NC(=O)[C@H](Cc1c[nH]cn1)NC(=O)[C@H](C)NC(=O)[C@H](CC(N)=O)NC(=O)[C@H](C)NC(=O)[C@H](C)NC(=O)[C@H](C)NC(=O)[C@H](CCC(N)=O)NC(=O)[C@H](C)NC(=O)[C@H](CCCNC(=N)N)NC(=O)[C@H](CC(C)C)NC(=O)[C@H](CC(N)=O)NC(=O)[C@H](CSC1CC(=O)N(CC)C1=O)NC(=O)[C@H](C)NC(=O)[C@H](CCCCN)NC(=O)[C@H](C)NC(=O)[C@@H](NC(=O)[C@H](CC(N)=O)NC(=O)[C@H](Cc1ccccc1)NC(=O)[C@H](CC(C)C)NC(=O)[C@H](CC(C)C)NC(=O)[C@H](CC(N)=O)NC(=O)[C@H](CCSC)NC(=O)[C@@H](NC(=O)[C@H](CC(N)=O)NC(=O)[C@@H](NC(=O)[C@@H]1CCCN1C(=O)[C@@H](NC(=O)[C@H](CC(=O)O)NC(=O)[C@H](CC(C)C)NC(=O)[C@H](CO)NC(=O)[C@H](CC(C)C)NC(=O)[C@@H](NC(=O)[C@H](Cc1ccccc1)NC(=O)[C@H](CCCCN)NC(=O)[C@@H](N)[C@@H](C)O)[C@@H](C)O)C(C)C)[C@@H](C)O)[C@@H](C)CC)[C@@H](C)CC)C(N)=O (stereo partly drawn) [SEQ ID NO: 50, TKFTLSLDVPTNIMNLLFNIAKAC(-NES)N LRAQA AANAH LMAQI-NH2] (H-TKFTLSLDVPTNIMNLLFNIAKAC(Succinimide(1-Et,3-yl))NLRAQAAANAHLMAQI-NH2; N-terminus assumed) |
| 9.55 | 1.61 | TKFTLSLDVPTNIMNLLFNIAKAKNLRAQCAANAHLMAQI-NH2 [SEQ ID NO: 31, TKFTLSLDVPTNIMNLLFNIAKAKNLRAQCAANAHLMAQI-NH2] |
| 0.851 | 0.45 | H-TKFTLSLDVPTNIMNLLFNIAKAKNLRAQAACNAHLMAQI-NH2 [SEQ ID NO: 33, TKFTLSLDVPTNIMNLLFNIAKAKNLRAQAACNAHLMAQI-NH2] |
| 0.282 | −0.08 | CC[C@H](C)[C@H](NC(=O)[C@H](CCC(N)=O)NC(=O)[C@H](C)NC(=O)[C@H](CCSC)NC(=O)[C@H](CC(C)C)NC(=O)[C@H](Cc1c[nH]cn1)NC(=O)[C@H](C)NC(=O)[C@H](CC(N)=O)NC(=O)[C@H](C)NC(=O)[C@H](C)NC(=O)[C@H](C)NC(=O)[C@H](CCC(N)=O)NC(=O)[C@H](C)NC(=O)[C@H](CCCNC(=N)N)NC(=O)[C@H](CC(C)C)NC(=O)[C@H](CC(N)=O)NC(=O)[C@H](CCCCN)NC(=O)[C@H](C)NC(=O)[C@H](CCCCN)NC(=O)[C@H](C)NC(=O)[C@@H](NC(=O)[C@H](CC(N)=O)NC(=O)[C@H](Cc1ccccc1)NC(=O)[C@H](CC(C)C)NC(=O)[C@H](CSC1CC(=O)N(CC)C1=O)NC(=O)[C@H](CC(N)=O)NC(=O)[C@H](CCSC)NC(=O)[C@@H](NC(=O)[C@H](CC(N)=O)NC(=O)[C@@H](NC(=O)[C@@H]1CCCN1C(=O)[C@@H](NC(=O)[C@H](CC(=O)O)NC(=O)[C@H](CC(C)C)NC(=O)[C@H](CO)NC(=O)[C@H](CC(C)C)NC(=O)[C@@H](NC(=O)[C@H](Cc1ccccc1)NC(=O)[C@H](CCCCN)NC(=O)[C@@H](N)[C@@H](C)O)[C@@H](C)O)C(C)C)[C@@H](C)O)[C@@H](C)CC)[C@@H](C)CC)C(N)=O (stereo partly drawn) [SEQ ID NO: 54, TKFTL SLDVP TNIMN C(-NES)LFNI AKAKN LRAQA AANAH LMAQI-NH2] (H-TKFTLSLDVPTNIMNC(Succinimide(1-Et,3-yl))LFNIAKAKNLRAQAAANAHLMAQI-NH2; N-terminus assumed) |
| ~31.6 | ~1.97 | CC[C@H](C)[C@H](NC(=O)[C@H](CCC(N)=O)NC(=O)[C@H](C)NC(=O)[C@H](CCSC)NC(=O)[C@H](CC(C)C)NC(=O)[C@H](Cc1c[nH]cn1)NC(=O)[C@H](C)NC(=O)[C@H](CSC1CC(=O)N(CC)C1=O)NC(=O)[C@H](C)NC(=O)[C@H](C)NC(=O)[C@H](C)NC(=O)[C@H](CCC(N)=O)NC(=O)[C@H](C)NC(=O)[C@H](CCCNC(=N)N)NC(=O)[C@H](CC(C)C)NC(=O)[C@H](CC(N)=O)NC(=O)[C@H](CCCCN)NC(=O)[C@H](C)NC(=O)[C@H](CCCCN)NC(=O)[C@H](C)NC(=O)[C@@H](NC(=O)[C@H](CC(N)=O)NC(=O)[C@H](Cc1ccccc1)NC(=O)[C@H](CC(C)C)NC(=O)[C@H](CC(C)C)NC(=O)[C@H](CC(N)=O)NC(=O)[C@H](CCSC)NC(=O)[C@@H](NC(=O)[C@H](CC(N)=O)NC(=O)[C@@H](NC(=O)[C@@H]1CCCN1C(=O)[C@@H](NC(=O)[C@H](CC(=O)O)NC(=O)[C@H](CC(C)C)NC(=O)[C@H](CO)NC(=O)[C@H](CC(C)C)NC(=O)[C@@H](NC(=O)[C@H](Cc1ccccc1)NC(=O)[C@H](CCCCN)NC(=O)[C@@H](N)[C@@H](C)O)[C@@H](C)O)C(C)C)[C@@H](C)O)[C@@H](C)CC)[C@@H](C)CC)C(N)=O (stereo partly drawn) [SEQ ID NO: 44, TKFTLSLDVPTNIMNLLFNIAKAKNLRAQAAAC(-NES)AH LMAQI-NH2] (H-TKFTLSLDVPTNIMNLLFNIAKAKNLRAQAAAC(Succinimide(1-Et,3-yl))AHLMAQI-NH2) |
| 35.5 | 2.07 | TKFTLSLDVPTNIMNLLFNIAKAKNLRAQAAANAHLMAQC-NH2 [SEQ ID NO: 41, TKFTLSLDVPTNIMNLLFNIAKAKNLRAQAAANAHLMAQC-NH2] |
